Earlier results, collected in patent publication US20260102408A1, “CONTRACEPTIVE COMPOSITIONS WITH REDUCED ADVERSE EFFECTS” (ESTETRA SRL, priority 2020, published 2026).

Details: single oral dose; Blode H et al. Study 1; Caucasian; geometric mean

C[C@]12CCC(=O)C=C1[C@@H]1C[C@@H]1[C@H]1[C@@H]3[C@@H]4C[C@@H]4[C@@]4(CCC(=O)O4)[C@@]3(C)CC[C@@H]12 [DRSP 3 mg, drospirenone]
AUCinf of DRSP: 506 ng·h/mL
Cmax of DRSP: 33.9 ng/mL
